These results are taken from patent US20240018158A1, “BRM TARGETING COMPOUNDS AND ASSOCIATED METHODS OF USE” (Prelude Therapeutics Incorporated, priority 2020, published 2024).

The target of experiment [1] is T1, SMARCA4 (Homo sapiens (Human), UniProt P51532). Briefly: In Cell Western SMARCA4 degradation in NCIH520 cells. As to conditions: for DC50: H520 cells, overnight, read-out: DC50 (SM4_H520) SMARCA4 degradation potency; for Dmax: NCI-H520, overnight, read-out: Dmax % (SM4_H520) maximum SMARCA4 degradation within the concentrations tested. In kind it is cell-based. On the procedure:
(§1) Compound titration and cell culture: Compounds were dissolved in DMSO to make 10 mM stock and 3-fold series dilutions were further conducted keeping the highest concentration 10 μM. NCIH1693 and NCIH520 cells were maintained in PRMI 1640 medium (Corning Cellgro, Catalog #:10-040-CV) supplemented with 10% v/v FBS (GE Healthcare, Catalog #: SH30910.03) by splitting 1:3 twice a week.
(§2) To determine SMACRA2 and SMARCA4 protein degradation DC50 values in NCIH1693 and NCIH520 cells by In Cell Western (ICW) analysis. Cells were trypsinized and 30 thousand cells/well were seeded into 384-well plates and were allowed to grow for 5 hours at 37° C. Eight-point, 3-fold serial dilutions of compounds from 10 mM stocks were added to the cells (using digital Dispenser D300-Tecan, keeping highest concentration 10 μM and normalizing with DMSO at the highest dispensed volume). Plates were incubated at 37° C. for overnight (maximum 18 hours). Cells incubated with DMSO was used as a vehicle control.
(§3) To perform In Cell Western, medium was removed from all the wells leaving cells attached to the surface. After removing the medium, cells were fixed within the plates with 40 μL of 4% formaldehyde by incubating at room temperature for 30 minutes, and then permeabilized with wash buffer (1×PBS with 0.1% Triton X-100) by washing the plate 5 times with 50 μL/well. Before labeling with primary antibodies, cells were blocked with 30 μL/well of blocking buffer (Licor Odyssey blocking buffer PBS #927-40000) for 30 minutes at room temperature. To measure SMARCA2 or SMARCA4 proteins, cells were labeled with 20 μL/well of anti SMARCA2 or SMACRA4 antibodies (Cell Signaling BRM #11966S 1:1000, Cell Signaling BRG #49360S 1:1000) diluted in Li-Cor Odyssey blocking buffer-PBS #927-40000, followed by overnight incubation at 4° C.
(§4) The next day, plates were washed 5×5 minutes with 50 μL/well of washing buffer to remove all the excess primary antibody and then 20 μL from a mixture of secondary antibody and fluorescent DNA specific dye (Goat anti rabbit 1:500 IRDye-800CW #92632211, and DRAQ5™ 1:2000-#ab108410) was added to each well. Plates were incubated for 1 hour at room temperature with gentle rocking. Cells were washed 5 times with 50 μL/well wash buffer, followed by one last wash with DI water, followed by 10 mins drying at 37° C. oven before scanning. Plates were scanned using Li-Cor Odyssey CLx imaging system to acquire integrated intensities at 700 nm and 800 nm. SMARCA signals were normalized to total cell count and then these normalized values were used to calculate the percent degradation relative to DMSO control and maximum inhibition. DC50s were calculated by using the GraphPad Prism4 program based on sigmoidal dose response equation ([Inhibitor] vs. normalized response−Variable slope).

In experiment [2] the target is bromodomain of SMARCA2 protein (Homo sapiens (Human), UniProt P40337+P51531). In words: SMARCA2 bromodomain ternary binding TR-FRET assay (with VCB). As to conditions: with saturating VCB (5 μM); read-out: IC50 (SM 2_T) ternary binding potency in SMARCA2 FRET assay. An excerpt: Recombinant bromodomain of SMARCA2 protein was purchased from Active Motif (Catalog #: 31449). VHL/ElonginB/ElonginC (VCB)N-terminal his6-tagged VHL (“his6” disclosed as SEQ ID NO: 4) (uniprot accession number P40337; M54-D213; […] […] […] (SEQ ID NO: 1)), Elongin B (Q15370; M1-K104; […] […] (SEQ ID NO: 2)), Elongin C (Q15369; M17-C112; […] […] (SEQ ID NO: 3)) complex were co-expressed and the complex was purified by Ni-affinity, TEV protease was then used to remove his6-tagged (SEQ ID NO: 4), and the complex was further purified by size-exclusion chromatography before use.
bromodomain of SMARCA2 protein, sequence (P51531 whole entry, looked up): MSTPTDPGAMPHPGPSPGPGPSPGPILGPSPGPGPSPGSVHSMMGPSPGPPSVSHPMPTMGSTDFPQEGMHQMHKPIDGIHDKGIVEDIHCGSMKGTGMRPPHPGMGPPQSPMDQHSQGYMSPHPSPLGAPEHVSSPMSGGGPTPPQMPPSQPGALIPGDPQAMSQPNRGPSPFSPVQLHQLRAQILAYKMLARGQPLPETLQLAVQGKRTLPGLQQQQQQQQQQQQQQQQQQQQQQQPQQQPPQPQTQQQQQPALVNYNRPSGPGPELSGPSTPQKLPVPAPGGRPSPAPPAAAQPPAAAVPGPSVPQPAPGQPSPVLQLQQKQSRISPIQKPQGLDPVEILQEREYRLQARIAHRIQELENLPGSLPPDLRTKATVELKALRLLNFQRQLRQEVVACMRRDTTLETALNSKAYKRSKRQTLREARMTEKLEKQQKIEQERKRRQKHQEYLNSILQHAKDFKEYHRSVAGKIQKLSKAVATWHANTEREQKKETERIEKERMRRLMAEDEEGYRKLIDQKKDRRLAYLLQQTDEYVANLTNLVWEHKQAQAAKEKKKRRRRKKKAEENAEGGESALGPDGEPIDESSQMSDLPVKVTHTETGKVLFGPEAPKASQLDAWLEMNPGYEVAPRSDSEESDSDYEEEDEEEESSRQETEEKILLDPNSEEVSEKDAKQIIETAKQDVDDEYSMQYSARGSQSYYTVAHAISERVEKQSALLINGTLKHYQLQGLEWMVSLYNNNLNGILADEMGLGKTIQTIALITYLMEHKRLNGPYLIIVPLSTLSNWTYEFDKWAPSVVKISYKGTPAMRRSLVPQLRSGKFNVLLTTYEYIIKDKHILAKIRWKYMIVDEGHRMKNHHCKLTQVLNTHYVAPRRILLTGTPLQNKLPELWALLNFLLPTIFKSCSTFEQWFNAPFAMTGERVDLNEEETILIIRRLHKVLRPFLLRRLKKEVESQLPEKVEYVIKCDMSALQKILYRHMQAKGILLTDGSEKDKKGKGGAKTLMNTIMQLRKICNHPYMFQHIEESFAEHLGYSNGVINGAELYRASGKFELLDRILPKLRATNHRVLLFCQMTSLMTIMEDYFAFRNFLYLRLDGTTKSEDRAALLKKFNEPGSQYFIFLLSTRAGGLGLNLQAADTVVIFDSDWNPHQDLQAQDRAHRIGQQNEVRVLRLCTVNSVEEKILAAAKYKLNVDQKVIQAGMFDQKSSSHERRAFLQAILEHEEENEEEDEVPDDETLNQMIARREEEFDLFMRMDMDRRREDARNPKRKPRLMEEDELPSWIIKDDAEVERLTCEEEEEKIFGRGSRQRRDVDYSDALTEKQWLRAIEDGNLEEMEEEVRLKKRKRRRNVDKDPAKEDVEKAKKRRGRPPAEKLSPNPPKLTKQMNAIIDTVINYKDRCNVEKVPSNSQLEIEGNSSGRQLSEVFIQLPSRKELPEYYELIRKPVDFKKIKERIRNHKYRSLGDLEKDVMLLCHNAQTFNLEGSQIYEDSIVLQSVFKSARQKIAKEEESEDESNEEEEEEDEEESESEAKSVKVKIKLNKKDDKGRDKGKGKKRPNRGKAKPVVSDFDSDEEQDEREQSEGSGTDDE
bromodomain of SMARCA2 protein, sequence (P40337 whole entry, looked up): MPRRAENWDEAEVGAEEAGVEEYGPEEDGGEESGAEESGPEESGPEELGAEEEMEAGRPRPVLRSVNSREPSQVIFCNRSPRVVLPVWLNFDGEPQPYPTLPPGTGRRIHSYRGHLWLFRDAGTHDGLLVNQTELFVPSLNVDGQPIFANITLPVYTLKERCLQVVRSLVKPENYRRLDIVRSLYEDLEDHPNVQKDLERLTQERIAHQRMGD
bromodomain of SMARCA2 protein, sequence (Q15370 whole entry partner, looked up): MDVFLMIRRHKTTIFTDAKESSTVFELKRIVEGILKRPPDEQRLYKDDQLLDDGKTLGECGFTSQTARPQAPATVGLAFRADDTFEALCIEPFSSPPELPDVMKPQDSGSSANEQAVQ
bromodomain of SMARCA2 protein, sequence (Q15369 whole entry partner, looked up): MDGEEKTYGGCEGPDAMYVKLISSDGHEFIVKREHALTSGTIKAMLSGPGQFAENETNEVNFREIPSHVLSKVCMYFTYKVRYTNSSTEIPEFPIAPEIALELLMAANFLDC
The inhibitory activity of compounds was evaluated in vitro using TR-FRET assay with white 384-well low volume microplate (PerkinElmer ProxiPlate Plus), in which the compound competes the same binding site with the ligand, and thus lead to dose-dependent TR-FRET signal reduction. The cooperativity of the compounds for ternary complex formation with E3 ligase was evaluated in the absence or presence of saturating concentrations of VCB. Testing compounds were dissolved in DMSO at […] and tested in 9-dose IC50. The assay mixture was prepared by mixing SMARCA2 (10 nM final), biotinylated probe (25 nM final), and assay buffer or VCB (5 μM) in 1×AlphaLISA Epigenetics Buffer (PerkinElmer AL008F) with 1 mM TCEP. The compounds in DMSO were added to each well in 3-fold serial dilution by dispenser (TECAN D300E) and incubate for 20 minutes at room temperature before addition of detection reagents, Lance Eu W1024 anti-6×His (0.6 nM final, PerkinElmer AD0110) and Streptavidin Surelight APC (6 nM final, PerkinElmer CR130-100). The plate was then sealed and further incubated at 4° C. overnight in dark, and then was read by Envision multimode plate reader (PerkinElmer, 2102-0010). The ratio of florescence signal at 665/620 was used in data analysis. Percentage inhibition was calculated by % inhibition=100×(FDMSO-F)/(FDMSO-FPC), in which FDMSO is DMSO control, and FPC is positive control. IC50 values were determined from dose response curve by fitting the percent inhibition against compound concentration using GraphPad Prism software.
(In TR-FRET formats the signal depends on donor and acceptor labels being close together.)

Experiment [3] addresses T2, SMARCA2 (Homo sapiens (Human), UniProt P51531). In words: In Cell Western SMARCA2 degradation in NCIH520 cells. In kind it is cell-based. As to conditions: for DC50: H520 cells, overnight, read-out: DC50 (SM2_H520) SMARCA2 degradation potency; for Dmax: NCI-H520, overnight, read-out: Dmax % (SM2_H520) maximum SMARCA2 degradation within the concentrations tested. On the procedure: as §1, §2, §3, §4

In a further experiment the test system is NCIH1693 cells. Briefly: Cell proliferation assay (ATPlite) in NCIH1693 cells. In kind it is cell-based. As to conditions: Homo sapiens, NCI-H1693, 96 h, day 4, read-out: IC50 (PRO_H1693) antiproliferation potency. The protocol:
One thousand NCIH1693 or NCIH1703 cells per well were seeded in 96 well plate and incubated at 37° C. for 5 hrs. A series of three-fold dilution of compounds from 10 mM stock concentration were added to the cells by using digital Dispenser D300-Tecan, keeping highest concentration 10 μM and normalizing with DMSO at the highest dispensed volume). Cells incubated with DMSO was used as a vehicle control. After compound treatment plates were incubated at 37° C. for 4 days and cell viability was measured by measuring ATP content from the cell lysate using ATPlite Luminescence assay system (PerkinElmer Cat. no #6016941). Percentage of viable cells, relative to DMSO vehicle control and maximum inhibition, was calculated and plotted in Graphpad Prism ([Inhibitor] vs. normalized response−Variable slope) to determine cell proliferation IC50 values on day 4.

The target in experiment [4] is T1, SMARCA4. Briefly: SMARCA4 HiBiT degradation assay in HeLa cells. The experiment is classed as cell-based. As to conditions: 18 hours. A digest of the protocol:
(§5)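 HeLa monoclonal lines carrying a heterozygous HiBiT knock-in on SMARCA2 or SMARCA4 were seeded at 2500 cells/well in EMEM with 10% FBS. After 18 h compound exposure at 37 °C, Nano-Glo HiBiT lytic detection ran 30-60 min at RT before the luminescence read. Values are from curve fits.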

Experiment [5] addresses T2, SMARCA2. Briefly: SMARCA2 HiBiT degradation assay in HeLa cells. The experiment is classed as cell-based. As to conditions: 18 hours. A digest of the protocol: as §5
On the technique in general: HiBiT is a short tag that completes a luciferase, so light tracks the accessible tagged protein.

The subject of experiment [6] is SMARCA4 mutated cancer cells. As to conditions: Vangamudi et al. Cancer Res 2015; cited from earlier work.

T2 sequence (P51531 whole entry): as the sequence (P51531 whole entry, looked up) above
T1 sequence (P51532 whole entry): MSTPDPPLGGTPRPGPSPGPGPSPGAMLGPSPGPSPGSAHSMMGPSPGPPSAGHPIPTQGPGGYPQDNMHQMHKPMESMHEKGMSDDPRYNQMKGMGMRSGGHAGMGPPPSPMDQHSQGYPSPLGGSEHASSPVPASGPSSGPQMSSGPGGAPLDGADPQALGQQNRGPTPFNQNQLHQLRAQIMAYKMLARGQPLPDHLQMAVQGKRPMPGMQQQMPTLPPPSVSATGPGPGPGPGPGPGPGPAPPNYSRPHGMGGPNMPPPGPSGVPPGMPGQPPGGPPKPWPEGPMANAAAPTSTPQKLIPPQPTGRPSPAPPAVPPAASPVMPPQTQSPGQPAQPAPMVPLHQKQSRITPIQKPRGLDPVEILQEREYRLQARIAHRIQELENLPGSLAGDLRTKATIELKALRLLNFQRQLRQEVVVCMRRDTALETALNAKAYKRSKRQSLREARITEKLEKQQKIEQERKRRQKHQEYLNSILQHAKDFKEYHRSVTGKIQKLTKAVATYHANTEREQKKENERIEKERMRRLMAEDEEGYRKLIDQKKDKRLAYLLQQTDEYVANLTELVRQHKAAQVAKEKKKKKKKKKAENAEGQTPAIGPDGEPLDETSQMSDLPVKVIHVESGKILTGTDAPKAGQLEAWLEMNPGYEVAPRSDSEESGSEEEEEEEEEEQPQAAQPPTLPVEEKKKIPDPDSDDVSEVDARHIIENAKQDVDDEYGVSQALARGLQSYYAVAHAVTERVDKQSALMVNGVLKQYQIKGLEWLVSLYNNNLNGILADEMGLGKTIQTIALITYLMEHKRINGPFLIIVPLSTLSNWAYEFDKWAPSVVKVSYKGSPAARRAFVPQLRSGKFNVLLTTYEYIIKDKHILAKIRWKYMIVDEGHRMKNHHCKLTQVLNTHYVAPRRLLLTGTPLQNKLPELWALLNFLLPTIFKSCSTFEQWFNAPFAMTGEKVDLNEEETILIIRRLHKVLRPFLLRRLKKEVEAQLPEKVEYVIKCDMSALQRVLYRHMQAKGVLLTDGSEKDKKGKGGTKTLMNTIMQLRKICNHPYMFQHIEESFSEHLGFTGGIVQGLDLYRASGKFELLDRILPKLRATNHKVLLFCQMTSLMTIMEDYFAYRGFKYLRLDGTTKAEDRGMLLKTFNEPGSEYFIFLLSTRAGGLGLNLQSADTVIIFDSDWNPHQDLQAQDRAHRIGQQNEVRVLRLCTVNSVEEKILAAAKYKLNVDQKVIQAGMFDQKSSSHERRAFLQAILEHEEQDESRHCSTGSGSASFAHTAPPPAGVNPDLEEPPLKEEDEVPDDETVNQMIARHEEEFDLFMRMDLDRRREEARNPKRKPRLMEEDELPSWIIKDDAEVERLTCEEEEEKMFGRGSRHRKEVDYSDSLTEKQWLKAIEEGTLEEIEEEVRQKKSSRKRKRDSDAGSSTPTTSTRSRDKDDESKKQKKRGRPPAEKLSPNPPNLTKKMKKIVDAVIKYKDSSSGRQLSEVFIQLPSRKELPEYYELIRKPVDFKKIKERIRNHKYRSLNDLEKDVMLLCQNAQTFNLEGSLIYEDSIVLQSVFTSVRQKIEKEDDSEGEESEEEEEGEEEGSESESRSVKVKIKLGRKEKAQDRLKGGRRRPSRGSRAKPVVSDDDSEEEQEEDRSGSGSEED

What is called DC50 is the midpoint of the concentration-degradation curve. As for `Cc1ncsc1-c1ccc([C@H](C)NC(=O)[C@@H]2C[C@@H](O)CN2C(=O)[C@@H](NC(=O)CN2CCN3c4cc(-c5ccccc5O)nnc4NCC3C2)C(C)(C)C)cc1` (single isomer, unassigned) [Example 1a], the DC50 on SMARCA4 [1] and at SMARCA2 [3] was 0.1 to 1 µM in each case. For the same molecule, the Dmax at SMARCA4 [1] and at SMARCA2 [3] was greater than 75% in each case. The IC50 (in experiment [2]; in the experiment with NCIH1693 cells) was 0.1 to 1 µM each time.
As for `Cc1ncsc1-c1ccc([C@H](C)NC(=O)[C@@H]2C[C@@H](O)CN2C(=O)C(c2cc(OCCN3CCC(CN4CCN5c6cc(-c7ccccc7O)nnc6NCC5C4)CC3)no2)C(C)C)cc1` (stereo in doubt) [Example 5, (2S,4R)-4-hydroxy-1-((2S)-2-(3-(2-(4-((2-(2-hydroxyphenyl)-5,6,6a,7,9,10-hexahydro-8H-pyrazino[1′,2′:4,5]pyrazino[2,3-c]pyridazin-8-yl)methyl)piperidin-1-yl)ethoxy)isoxazol-5-yl)-3-methylbutanoyl)-N-((S)-1-(4-(4-methylthiazol-5-yl)phenyl)ethyl)pyrrolidine-2-carboxamide], at SMARCA4 [1], the DC50 was less than 0.1 µM and the Dmax is greater than 75%. In addition, in experiment [2], the IC50 is less than 0.1 µM. Besides, at SMARCA2 [3], the DC50 was less than 0.1 µM and the Dmax is greater than 75%.
With `Cc1ncsc1-c1ccc([C@H](C)NC(=O)[C@@H]2C[C@@H](O)CN2C(=O)[C@@H](NC(=O)CN2CCC(CN3CCN4c5cc(-c6ccccc6O)nnc5NCC4C3)CC2)C(C)(C)C)cc1` (stereo partly drawn) [Example 3, (2S,4R)-4-hydroxy-1-((2S)-2-(2-(4-((2-(2-hydroxyphenyl)-5,6,6a,7,9,10-hexahydro-8H-pyrazino[1′,2′:4,5]pyrazino[2,3-c]pyridazin-8-yl)methyl)piperidin-1-yl)acetamido)-3,3-dimethylbutanoyl)-N-((S)-1-(4-(4-methylthiazol-5-yl)phenyl)ethyl)pyrrolidine-2-carboxamide], on SMARCA4 [1], the DC50 was 0.1 to 1 µM and the Dmax was greater than 75%. The IC50 in experiment [2] was less than 0.1 µM. Also, on SMARCA2 [3], the DC50 was less than 0.1 µM and the Dmax was greater than 75%.
In the case of `Cc1ncsc1-c1ccc([C@H](C)NC(=O)[C@@H]2C[C@@H](O)CN2C(=O)[C@@H](c2cc(OCCN3CCN4c5cc(-c6ccccc6O)nnc5NCC4C3)no2)C(C)C)cc1` (stereo partly drawn) [Example 4, (2S,4R)-4-hydroxy-1-((2R)-2-(3-(2-(2-(2-hydroxyphenyl)-5,6,6a,7,9,10-hexahydro-8H-pyrazino[1′,2′:4,5]pyrazino[2,3-c]pyridazin-8-yl)ethoxy)isoxazol-5-yl)-3-methylbutanoyl)-N-((S)-1-(4-(4-methyl-1λ^3,3λ^2-thiazol-5-yl)phenyl)ethyl)pyrrolidine-2-carboxamide], the DC50 on SMARCA4 [1] is 0.1 to 1 µM; at SMARCA2 [3] it was less than 0.1 µM. Also, the Dmax at SMARCA4 [1] and on SMARCA2 [3] was greater than 75% in each case. The IC50 (in experiment [2]; in the experiment on NCIH1693 cells) was less than 0.1 µM throughout.
For the molecule `Cc1ncsc1-c1ccc([C@H](C)NC(=O)[C@@H]2C[C@@H](O)CN2C(=O)[C@@H](c2cc(OCCN3CCC(N4C[C@@H]5CNc6nnc(-c7ccccc7O)cc6N5C[C@@H]4C)C3)no2)C(C)C)cc1` (stereo partly drawn) [Example 102, (2S,4R)-4-hydroxy-1-((2R)-2-(3-(2-(3-((6aS,9S)-2-(2-hydroxyphenyl)-9-methyl-5,6,6a,7,9,10-hexahydro-8H-pyrazino[1′,2′:4,5]pyrazino[2,3-c]pyridazin-8-yl)pyrrolidin-1-yl)ethoxy)isoxazol-5-yl)-3-methylbutanoyl)-N-((S)-1-(4-(4-methylthiazol-5-yl)phenyl)ethyl)pyrrolidine-2-carboxamide], the DC50 on SMARCA4 [4] (read-out: DC50 (SM4-HeLa) SMARCA4 degradation potency) and on SMARCA2 [5] (read-out: DC50 (SM2-HeLa) SMARCA2 degradation potency) was less than 0.1 µM throughout. The Dmax on SMARCA4 [4] (HeLa, read-out: Dmax % (SM4-HeLa) maximum SMARCA4 degradation within the concentrations tested) was greater than 75%; at SMARCA2 [5] (read-out: Dmax % (SM2-HeLa) maximum SMARCA2 degradation within the concentrations tested) it was greater than 75%.
In the case of `O=C(/C=C/N1C[C@H]2C[C@@H]1CN2c1ccccn1)c1ccccc1O` [PFI-3], in experiment [6], the “effects on cell proliferation inhibition” value was “none to minor effects”.
